The structures appear in SMILES notation. Numbered stars: 1 amine (or outer) side, 2 acyl side, 3 side chain; on linkers, the order of the positions; unused ones are H or OH. Bridge positions count the residues as written; N and C are the ends. Square brackets hold non-standard residues; d marks the D form. Peptide text beside a SMILES is read from it. * marks the point of attachment. hPhe(3,5-F2-4-CF3) = N[C@@H](CCc1cc(F)c(C(F)(F)F)c(F)c1)C(=O)O; hPhe(3-Cl-4-CF3) = N[C@@H](CCc1ccc(C(F)(F)F)c(Cl)c1)C(=O)O; hPhe(3-F,4-CF3) = N[C@@H](CCc1ccc(C(F)(F)F)c(F)c1)C(=O)O; NMePhe(4-CF3) = CN[C@@H](Cc1ccc(C(F)(F)F)cc1)C(=O)O; hPhe(4-CF3) = N[C@@H](CCc1ccc(C(F)(F)F)cc1)C(=O)O; NMePhe(4-Cl) = CN[C@@H](Cc1ccc(Cl)cc1)C(=O)O; NMePhe(4-Me) = CN[C@@H](Cc1ccc(C)cc1)C(=O)O; NMedβ3hAla = C[C@H](CC(=O)[*:2])N(C)[*:1]; NMeGly(cPent) = CN[C@H](C(=O)O)C1CCCC1; Pro(4,4-F2) = O=C(O)[C@@H]1CC(F)(F)CN1; NMeCha = CN[C@@H](CC1CCCCC1)C(=O)O; NMeChg = CN[C@H](C(=O)O)C1CCCCC1; NMeT = CN[C@H](C(=O)O)[C@@H](C)O; N(CH2CH2)2CF2 = FC1(F)CCN(*)CC1; NMeD = CN[C@@H](CC(=O)O)C(=O)O; NMeL = CN[C@@H](CC(C)C)C(=O)O; NMeV = CN[C@H](C(=O)O)C(C)C; d(β3hA) = C[C@@H](N)CC(=O)O; NMeA = CN[C@@H](C)C(=O)O; Piperidide = C1CCN(*)CC1; dNMeA = CN[C@H](C)C(=O)O; Ac5c = NC1(C(=O)O)CCCC1; Aze = O=C(O)[C@@H]1CCN1; Aib = CC(C)(N)C(=O)O; Bn = c1ccc(C*)cc1; Sar = CNCC(=O)O

This assay deals with protein-protein interaction between Kras and SOS1 (biotin-tagged human Kras loaded with GDP, His-tagged human SOS1) (Homo sapiens (Human), UniProt P01116, G12D). Description: Protein-protein interaction inhibition between Kras and SOS1 (KrasG12D-SOS PPI) using AlphaScreen.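 Note: kras produced in E. coli, Ni-coupled donor beads and streptavidin acceptor beads, excitation 680 nm with emission detected at 520–620 nm via singlet oxygen transfer.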 In kind it is biochemical. Conditions: AlphaScreen; biotin-tagged human Kras loaded with GDP, His-tagged human SOS1; read-out: KRAS G12D-SOS PPI IC50. (Alpha assays give light when donor and acceptor beads are brought close together.)
As for `CC[C@H](C)[C@@H]1NC(=O)[C@H](CC(C)C)N(C)C(=O)C[C@@H](C)N(C)C(=O)[C@H](C(C)C)N(C)C(=O)C2(CCCC2)NC(=O)[C@H](CC(=O)N2CCC(F)(F)CC2)N(C)C(=O)[C@H](CCc2ccc(C(F)(F)F)c(Cl)c2)NC(=O)CN(C)C(=O)[C@H](CC2CCCCC2)N(C)C(=O)CN(C)C(=O)CN(C)C1=O` [Compound 350] (cyclo([Ac5c][NMeV][NMedβ3hAla][NMeL]I[Sar][Sar][NMeCha][Sar][hPhe(3-Cl-4-CF3)][NMeD](N(CH2CH2)2CF2))), the IC50 was found to be 64 nM. The figure for `CC[C@H](C)[C@@H]1NC(=O)[C@H](CC(C)C)N(C)C(=O)C[C@@H](C(=O)N2CCCCC2)N(C)C(=O)[C@H](C2CCCC2)N(C)C(=O)C2(CCCC2)NC(=O)[C@@H]2CCCN2C(=O)[C@H](CCc2ccc(C(F)(F)F)c(F)c2)NC(=O)CN(C)C(=O)[C@H](CC2CCCCC2)N(C)C(=O)[C@@H]2CCN2C(=O)[C@H](C)N(C)C1=O` [Compound 563] ([NMeL]I[NMeA][Aze][NMeCha][Sar][hPhe(3-F,4-CF3)]P[Ac5c][NMeGly(cPent)][NMeD]-Piperidide; lactam N-11) is 1.1 nM; for `CC[C@H](C)[C@@H]1NC(=O)[C@H](CC(C)C)N(C)C(=O)C[C@@H](C(=O)N(C)C)N(C)C(=O)[C@H](C2CCCCC2)N(C)C(=O)C2(CCCC2)NC(=O)[C@@H]2CCCN2C(=O)[C@H](CCc2ccc(C(F)(F)F)c(Cl)c2)NC(=O)CN(C)C(=O)[C@H](Cc2ccc(C)cc2)N(C)C(=O)[C@@H]2CCN2C(=O)[C@H](C)N(C)C1=O` [Compound 1685] ([NMeL]I[NMeA][Aze][NMePhe(4-Me)][Sar][hPhe(3-Cl-4-CF3)]P[Ac5c][NMeChg][NMeD]-NMe2; lactam N-11) it is 0.6 nM. The figure for `CC[C@H](C)[C@@H]1NC(=O)[C@H](CC(C)C)N(C)C(=O)C[C@@H](C)N(C)C(=O)[C@H](C2CCCCC2)N(C)C(=O)C2(CCCC2)NC(=O)[C@@H]2CC(F)(F)CN2C(=O)[C@H](CCc2cc(F)c(C(F)(F)F)c(F)c2)NC(=O)CN(C)C(=O)[C@H](Cc2ccc(C(F)(F)F)cc2)N(C)C(=O)[C@@H]2CCN2C(=O)[C@H](C)N(C)C1=O` [Compound 606] (cyclo([Ac5c][NMeChg][NMedβ3hAla][NMeL]I[NMeA][Aze][NMePhe(4-CF3)][Sar][hPhe(3,5-F2-4-CF3)][Pro(4,4-F2)])) is 8.3 nM; for `CC[C@H](C)[C@@H]1NC(=O)[C@H](CC(C)C)N(C)C(=O)C[C@@H](C)NC(=O)[C@H](C2CCCC2)N(C)C(=O)C2(CCCC2)NC(=O)[C@@H]2CCCN2C(=O)[C@H](CCc2ccc(C(F)(F)F)c(Cl)c2)NC(=O)[C@@H](C)N(C)C(=O)[C@H](CC2CCCCC2)N(C)C(=O)[C@@H]2CCN2C(=O)CN(C)C1=O` [Compound 1531] (cyclo([Ac5c][NMeGly(cPent)][d(β3hA)][NMeL]I[Sar][Aze][NMeCha][dNMeA][hPhe(3-Cl-4-CF3)]P)) it is 230 nM. The figure for `CC[C@H](C)[C@@H]1NC(=O)[C@H](C)N(C)C(=O)C[C@@H](C)NC(=O)[C@H](CC(C)C)N(C)C(=O)C(C)(C)NC(=O)[C@H](CC(C)C)N(C)C(=O)[C@H](CCc2ccc(C(F)(F)F)cc2)NC(=O)CN(C)C(=O)[C@H]([C@@H](C)OCc2ccccc2)N(C)C(=O)CN(C)C(=O)CN(C)C1=O` [Compound 1067] (cyclo([Aib][NMeL][d(β3hA)][NMeA]I[Sar][Sar][NMeT](Bn)[Sar][hPhe(4-CF3)][NMeL])) is 290 nM; for `CC[C@H](C)[C@@H]1NC(=O)[C@H](C(C)C)N(C)C(=O)C[C@@H](C)NC(=O)[C@H](CC(C)C)N(C)C(=O)C(C)(C)NC(=O)[C@H](CC(C)C)N(C)C(=O)[C@H](CCc2ccc(C(F)(F)F)c(Cl)c2)NC(=O)CN(C)C(=O)[C@H](Cc2ccc(Cl)cc2)N(C)C(=O)CN(C)C(=O)CN(C)C1=O` [Compound 740] (cyclo([Aib][NMeL][d(β3hA)][NMeV]I[Sar][Sar][NMePhe(4-Cl)][Sar][hPhe(3-Cl-4-CF3)][NMeL])) it is 11 nM.

By IC50 is commonly meant the concentration at which inhibition is half-maximal.

For the origin of these results see patent US20240148821A1, “PHARMACEUTICAL USE OF CYCLIC PEPTIDE COMPOUND” (CHUGAI SEIYAKU KABUSHIKI KAISHA, priority 2021, published 2024).
